Earlier results in paper PMC8476002, “Bergamottin a CYP3A inhibitor found in grapefruit juice inhibits prostate cancer cell growth by downregulating androgen receptor signaling and promoting G0/G1 cell cycle block and apoptosis” (PLoS ONE, 2021).

Legend:
[1] = test system: cell growth; settings: earlier work of the authors; cited from earlier work
[2] = test system: cytoplasmic AR; set-up: method as in PMID 32316460; settings: cited from earlier work

| Compound | cell growth [1] | cytoplasmic AR [2] |
| --- | --- | --- |
| CC[C@]1(C)C[C@@H](OC(=O)CSc2nnc(N)[nH]2)[C@]2(C)[C@H](C)CC[C@]3(CCC(=O)[C@H]32)[C@@H](C)[C@@H]1O [azamulin] | cell growth is inhibited | – |
| CC(C)c1nc(CN(C)C(=O)N[C@H](C(=O)N[C@@H](Cc2ccccc2)C[C@H](O)[C@H](Cc2ccccc2)NC(=O)OCc2cncs2)C(C)C)cs1 [ritonavir] | – | increase in cytoplasmic AR |
